Results from patent US12258328B2, “6-membered heteroaryl-containing aminopyridine compounds as EGFR inhibitors” (YUHAN CORPORATION, priority 2021, dated 2025).
Where two headings read alike, the source gives them in different places.

Legend:
EGFR del19/C797S = EGFR del19/C797S (Homo sapiens, UniProt P00533, C797S/DEL746-750); experiment: Biochemical EGFR kinase assay (Lance Ultra TR-FRET), double mutant del19/C797S
In short: (§1)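 Enzyme reactions lasted 1 hour at room temperature with test compounds between 0.003 and 10 μM, followed by 10 mM EDTA quench.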

EGFR del19/T790M/C797S = EGFR del19/T790M/C797S (Homo sapiens, UniProt P00533, C797S/DEL746-750/T790M); experiment: Biochemical EGFR kinase assay (Lance Ultra TR-FRET), triple mutant del19/T790M/C797S
Sequence of EGFR del19/T790M/C797S (P00533 with tags, fused parts or gaps DEL746-750/T790M/C797S): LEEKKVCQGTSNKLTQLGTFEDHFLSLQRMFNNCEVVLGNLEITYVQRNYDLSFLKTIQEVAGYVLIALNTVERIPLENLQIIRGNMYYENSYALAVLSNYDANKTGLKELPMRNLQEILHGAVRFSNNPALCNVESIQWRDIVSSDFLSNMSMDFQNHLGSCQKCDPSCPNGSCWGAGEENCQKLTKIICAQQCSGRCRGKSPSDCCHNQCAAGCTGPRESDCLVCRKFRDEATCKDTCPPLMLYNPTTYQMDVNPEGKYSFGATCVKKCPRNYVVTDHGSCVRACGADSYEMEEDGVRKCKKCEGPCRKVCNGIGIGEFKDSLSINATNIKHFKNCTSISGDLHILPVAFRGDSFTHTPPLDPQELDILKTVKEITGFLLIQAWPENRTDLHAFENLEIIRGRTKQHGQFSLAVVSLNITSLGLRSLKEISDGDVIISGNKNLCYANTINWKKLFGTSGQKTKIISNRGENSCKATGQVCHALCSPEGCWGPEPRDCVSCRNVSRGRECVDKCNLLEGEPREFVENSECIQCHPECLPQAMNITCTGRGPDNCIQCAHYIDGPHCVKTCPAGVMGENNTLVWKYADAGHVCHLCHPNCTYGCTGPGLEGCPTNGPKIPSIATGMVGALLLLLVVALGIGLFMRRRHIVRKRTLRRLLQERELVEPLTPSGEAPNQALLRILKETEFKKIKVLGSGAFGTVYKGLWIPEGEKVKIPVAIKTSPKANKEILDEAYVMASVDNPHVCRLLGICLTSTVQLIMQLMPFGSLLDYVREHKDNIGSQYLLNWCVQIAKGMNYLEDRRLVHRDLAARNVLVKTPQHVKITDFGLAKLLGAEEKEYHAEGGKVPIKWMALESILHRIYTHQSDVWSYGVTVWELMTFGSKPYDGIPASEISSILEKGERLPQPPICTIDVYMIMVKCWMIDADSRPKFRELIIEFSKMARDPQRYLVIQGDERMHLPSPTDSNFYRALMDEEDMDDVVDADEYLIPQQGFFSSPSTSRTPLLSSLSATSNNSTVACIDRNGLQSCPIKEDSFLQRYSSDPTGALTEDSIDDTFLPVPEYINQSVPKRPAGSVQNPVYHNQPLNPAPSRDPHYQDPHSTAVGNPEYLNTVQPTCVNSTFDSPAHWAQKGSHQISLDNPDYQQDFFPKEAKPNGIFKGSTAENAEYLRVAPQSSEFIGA
In short: as §1

EGFR L858R/T790M/C797S = EGFR L858R/T790M/C797S (Homo sapiens, UniProt P00533, C797S/L858R/T790M); experiment: Biochemical EGFR kinase assay (Lance Ultra TR-FRET), triple mutant L858R/T790M/C797S
Sequence of EGFR L858R/T790M/C797S (P00533 25-1210 T790M/C797S/L858R): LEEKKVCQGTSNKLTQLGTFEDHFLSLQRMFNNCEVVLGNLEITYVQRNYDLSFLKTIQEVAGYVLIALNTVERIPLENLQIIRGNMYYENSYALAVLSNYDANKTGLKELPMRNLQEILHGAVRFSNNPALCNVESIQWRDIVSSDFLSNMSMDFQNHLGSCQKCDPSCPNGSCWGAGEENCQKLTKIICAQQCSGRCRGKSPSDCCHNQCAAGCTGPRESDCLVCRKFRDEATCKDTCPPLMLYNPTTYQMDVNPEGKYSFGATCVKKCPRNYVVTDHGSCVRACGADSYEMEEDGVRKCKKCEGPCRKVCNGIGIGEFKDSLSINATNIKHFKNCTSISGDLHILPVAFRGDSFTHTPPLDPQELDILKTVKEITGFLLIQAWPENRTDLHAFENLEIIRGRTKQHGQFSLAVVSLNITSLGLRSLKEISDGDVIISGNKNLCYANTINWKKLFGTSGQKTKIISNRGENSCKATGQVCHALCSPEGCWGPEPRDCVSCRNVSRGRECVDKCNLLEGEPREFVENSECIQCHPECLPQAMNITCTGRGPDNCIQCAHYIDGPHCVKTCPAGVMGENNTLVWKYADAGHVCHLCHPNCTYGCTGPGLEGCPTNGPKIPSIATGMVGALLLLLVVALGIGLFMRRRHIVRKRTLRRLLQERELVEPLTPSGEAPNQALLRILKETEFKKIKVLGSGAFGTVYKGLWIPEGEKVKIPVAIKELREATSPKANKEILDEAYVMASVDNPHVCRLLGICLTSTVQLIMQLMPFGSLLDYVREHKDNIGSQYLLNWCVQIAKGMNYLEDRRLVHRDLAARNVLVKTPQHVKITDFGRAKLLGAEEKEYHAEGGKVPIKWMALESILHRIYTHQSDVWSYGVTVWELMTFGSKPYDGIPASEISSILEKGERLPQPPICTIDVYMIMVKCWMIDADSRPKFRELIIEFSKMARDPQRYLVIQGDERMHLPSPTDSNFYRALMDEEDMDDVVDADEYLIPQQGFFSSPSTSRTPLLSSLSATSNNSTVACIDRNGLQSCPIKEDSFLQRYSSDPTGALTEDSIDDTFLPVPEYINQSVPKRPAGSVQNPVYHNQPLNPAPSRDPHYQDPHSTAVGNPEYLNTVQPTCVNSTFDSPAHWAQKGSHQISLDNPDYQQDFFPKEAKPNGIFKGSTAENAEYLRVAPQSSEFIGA
In short: as §1

EGFR wildtype = EGFR wildtype (Homo sapiens, UniProt P00533); experiment: Biochemical EGFR kinase assay (Lance Ultra TR-FRET), wildtype
Sequence of EGFR wildtype (P00533 25-1210): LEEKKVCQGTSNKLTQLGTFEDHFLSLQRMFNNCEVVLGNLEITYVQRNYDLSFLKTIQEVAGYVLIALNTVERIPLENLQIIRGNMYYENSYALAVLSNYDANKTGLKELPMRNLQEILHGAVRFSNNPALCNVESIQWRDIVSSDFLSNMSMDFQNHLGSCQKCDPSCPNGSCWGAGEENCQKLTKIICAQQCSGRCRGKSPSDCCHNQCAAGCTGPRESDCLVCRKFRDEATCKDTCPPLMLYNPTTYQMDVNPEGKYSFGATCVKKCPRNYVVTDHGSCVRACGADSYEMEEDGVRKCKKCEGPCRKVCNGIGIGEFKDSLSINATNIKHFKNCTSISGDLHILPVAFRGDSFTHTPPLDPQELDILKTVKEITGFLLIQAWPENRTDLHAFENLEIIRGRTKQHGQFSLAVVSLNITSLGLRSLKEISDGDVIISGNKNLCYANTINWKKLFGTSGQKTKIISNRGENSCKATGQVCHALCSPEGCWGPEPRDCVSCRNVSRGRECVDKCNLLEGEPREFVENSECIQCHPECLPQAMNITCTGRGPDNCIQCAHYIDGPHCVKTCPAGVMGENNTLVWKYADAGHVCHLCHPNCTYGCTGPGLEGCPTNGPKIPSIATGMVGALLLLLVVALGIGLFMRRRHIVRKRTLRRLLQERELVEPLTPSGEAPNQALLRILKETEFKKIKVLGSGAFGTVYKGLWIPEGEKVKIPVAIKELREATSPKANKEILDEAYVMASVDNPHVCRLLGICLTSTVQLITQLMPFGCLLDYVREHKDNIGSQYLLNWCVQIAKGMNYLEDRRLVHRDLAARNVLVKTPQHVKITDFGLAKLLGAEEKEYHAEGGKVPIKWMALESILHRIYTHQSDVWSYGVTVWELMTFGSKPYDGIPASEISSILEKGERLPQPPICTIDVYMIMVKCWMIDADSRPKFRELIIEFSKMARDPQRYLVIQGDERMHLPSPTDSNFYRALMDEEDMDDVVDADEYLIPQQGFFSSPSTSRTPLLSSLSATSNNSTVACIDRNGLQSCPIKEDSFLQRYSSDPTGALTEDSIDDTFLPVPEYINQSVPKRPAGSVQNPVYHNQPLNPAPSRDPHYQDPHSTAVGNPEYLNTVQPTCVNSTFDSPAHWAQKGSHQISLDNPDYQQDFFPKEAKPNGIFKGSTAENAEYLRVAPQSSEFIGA
In short: as §1

EGFR L858R/C797S = EGFR L858R/C797S (Homo sapiens, UniProt P00533, C797S/L858R); experiment: Biochemical EGFR kinase assay (Lance Ultra TR-FRET), double mutant L858R/C797S
Sequence of EGFR L858R/C797S (P00533 25-1210 C797S/L858R): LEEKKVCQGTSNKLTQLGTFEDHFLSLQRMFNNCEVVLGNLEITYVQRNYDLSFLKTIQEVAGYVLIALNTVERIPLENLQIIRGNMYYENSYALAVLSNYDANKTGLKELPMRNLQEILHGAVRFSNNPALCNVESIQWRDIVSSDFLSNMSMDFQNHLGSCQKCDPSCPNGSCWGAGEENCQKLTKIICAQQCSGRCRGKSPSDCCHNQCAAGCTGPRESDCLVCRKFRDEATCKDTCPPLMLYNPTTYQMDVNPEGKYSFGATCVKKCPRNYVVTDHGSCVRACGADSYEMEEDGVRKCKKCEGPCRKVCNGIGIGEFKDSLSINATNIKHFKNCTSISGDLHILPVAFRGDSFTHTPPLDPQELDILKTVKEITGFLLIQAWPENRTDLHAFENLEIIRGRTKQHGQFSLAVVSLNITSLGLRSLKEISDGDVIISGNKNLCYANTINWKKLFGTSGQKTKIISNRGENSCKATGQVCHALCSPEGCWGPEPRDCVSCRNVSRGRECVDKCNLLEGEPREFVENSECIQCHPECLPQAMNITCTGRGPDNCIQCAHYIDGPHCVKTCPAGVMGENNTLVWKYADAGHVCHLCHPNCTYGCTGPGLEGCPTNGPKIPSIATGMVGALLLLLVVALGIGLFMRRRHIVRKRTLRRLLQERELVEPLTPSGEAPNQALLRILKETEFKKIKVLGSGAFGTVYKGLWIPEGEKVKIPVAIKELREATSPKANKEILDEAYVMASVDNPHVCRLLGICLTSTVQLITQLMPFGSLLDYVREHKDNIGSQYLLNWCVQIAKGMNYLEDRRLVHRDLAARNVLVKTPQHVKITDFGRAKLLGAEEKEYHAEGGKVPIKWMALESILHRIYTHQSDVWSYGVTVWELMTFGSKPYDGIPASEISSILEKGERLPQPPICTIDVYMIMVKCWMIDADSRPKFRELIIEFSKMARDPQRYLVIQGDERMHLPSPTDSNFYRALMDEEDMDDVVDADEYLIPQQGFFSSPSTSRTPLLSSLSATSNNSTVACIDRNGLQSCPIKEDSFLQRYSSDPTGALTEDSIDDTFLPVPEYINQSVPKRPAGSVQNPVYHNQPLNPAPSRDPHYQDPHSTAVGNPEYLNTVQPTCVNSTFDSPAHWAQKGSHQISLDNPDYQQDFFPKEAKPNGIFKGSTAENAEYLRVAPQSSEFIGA
In short: as §1

[1] = ATP at Km, read-out: IC50 del19/C797S, Km ATP
[2] = ATP at Km, read-out: IC50 del19/T790M/C797S, Km ATP
[3] = IC50 del19/T790M/C797S, 100 μM ATP
[4] = ATP at Km, read-out: IC50 L858R/T790M/C797S, Km ATP
[5] = IC50 L858R/T790M/C797S, 100 μM ATP
[6] = ATP at Km, read-out: IC50 WT, Km ATP
[7] = ATP at Km, read-out: IC50 L858R/C797S, Km ATP

Row | Structure (SMILES) | IC50 (EGFR del19/C797S; [1]) [nM] | IC50 (EGFR del19/C797S; IC50 del19/C797S, 100 μM ATP) [nM] | IC50 (EGFR del19/T790M/C797S; [2]) [nM] | IC50 (EGFR del19/T790M/C797S; [3]) [nM] | IC50 (EGFR L858R/T790M/C797S; [4]) [nM] | IC50 (EGFR L858R/T790M/C797S; [5]) [nM] | IC50 (EGFR wildtype; [6]) [nM] | IC50 (EGFR wildtype; IC50 WT, 100 μM ATP) [nM] | IC50 (EGFR L858R/C797S; [7]) [nM] | IC50 (EGFR L858R/C797S; IC50 L858R/C797S, 100 μM ATP) [nM]
1 | CN(C)CCOc1ccc(-c2cnc(Nc3ccnc(-c4cnn(S(=O)(=O)C5CC5)c4)n3)cc2N[C@H]2CC[C@@H](C(C)(C)O)CC2)nc1 [Example 210, 2-((1s,4s)-4-((6′-((2-(1-(Cyclopropylsulfonyl)-1H-pyrazol-4-yl)pyrimidin-4-yl)amino)-5-(2-(dimethylamino)ethoxy)-[2,3′-bipyridin]-4′-yl)amino)cyclohexyl)propan-2-ol] | 0.3 | 0.5 | 0.3 | 0.4 | 0.2 | 0.3 | 0.6 | 426 | 0.1 | 1.8
2 | CC(C)(O)[C@H]1CC[C@@H](Nc2cc(Nc3ccnc(-c4cnn(S(=O)(=O)C5CC5)c4)n3)ncc2-c2cc(NC3CC(F)(F)C3)ccn2)CC1 [Example 215, 2-((1s,4s)-4-((6′-((2-(1-(Cyclopropylsulfonyl)-1H-pyrazol-4-yl)pyrimidin-4-yl)amino)-4-((3,3-difluorocyclobutyl)amino)-[2,3′-bipyridin]-4′-yl)amino)cyclohexyl)propan-2-ol] | 7.8 | 36.4 | 9.1 | 25.4 | 7.6 | 17.5 | 21.4 | 6110 | 13.6 | 46.4
3 | C[C@]1(O)CC[C@@H](Nc2cc(Nc3ccnc(-c4cnn(S(=O)(=O)C5CC5)c4)n3)ncc2-c2ccc(CC(F)(F)F)cn2)CC1 [Example 218, (1s,4s)-4-((6′-((2-(1-(Cyclopropylsulfonyl)-1H-pyrazol-4-yl)pyrimidin-4-yl)amino)-5-(2,2,2-trifluoroethyl)-[2,3′-bipyridin]-4′-yl)amino)-1-methylcyclohexan-1-ol] | – | 7.1 | 2.1 | 0.6 | 0.7 | 1.8 | 10.3 | > 10000 | 3.6 | 59.4
4 | CC(C)(O)[C@H]1CC[C@@H](Nc2cc(Nc3ccnc(-c4cnn(S(=O)(=O)C5CC5)c4)n3)ncc2-c2ccc(CC(F)(F)F)cn2)CC1 [Example 220, 2-((1s,4s)-4-((6′-((2-(1-(Cyclopropylsulfonyl)-1H-pyrazol-4-yl)pyrimidin-4-yl)amino)-5-(2,2,2-trifluoroethyl)-[2,3′-bipyridin]-4′-yl)amino)cyclohexyl)propan-2-ol] | 27.8 | 30.5 | 8.5 | 2.3 | 5.4 | 9.3 | 115 | > 10000 | 25.9 | 289
5 | CN(C)C[C@H]1CC[C@@H](Nc2cc(Nc3ccnc(-c4cnn(S(=O)(=O)C5CC5)c4)n3)ncc2-c2ccc(CC(F)(F)F)cn2)CC1 [Example 221, N^6′-(2-(1-(Cyclopropylsulfonyl)-1H-pyrazol-4-yl)pyrimidin-4-yl)-N^4′-((1s,4s)-4-((dimethylamino)methyl)cyclohexyl)-5-(2,2,2-trifluoroethyl)-[2,3′-bipyridine]-4′,6′-diamine] | 1.1 | – | 1.1 | 1.4 | 0.3 | 0.5 | 2.1 | 767 | 1 | 5.7
6 | O=S(=O)(C1CC1)n1cc(-c2nccc(Nc3cc(N[C@H]4CCC[C@H](CO)C4)c(-c4ccc(CC(F)(F)F)cn4)cn3)n2)cn1 [Example 222, ((1S,3S)-3-((6′-((2-(1-(Cyclopropylsulfonyl)-1H-pyrazol-4-yl)pyrimidin-4-yl)amino)-5-(2,2,2-trifluoroethyl)-[2,3′-bipyridin]-4′-yl)amino)cyclohexyl)methanol] | 8.9 | 16.8 | 3.9 | 3.4 | 1.7 | 2 | 37.4 | > 10000 | 11.7 | 296

Other lines, results leading:

Row | IC50 (EGFR del19/C797S; [1]) [nM] | IC50 (EGFR del19/C797S; IC50 del19/C797S, 100 μM ATP) [nM] | IC50 (EGFR del19/T790M/C797S; [2]) [nM] | IC50 (EGFR del19/T790M/C797S; [3]) [nM] | IC50 (EGFR L858R/T790M/C797S; [4]) [nM] | IC50 (EGFR L858R/T790M/C797S; [5]) [nM] | IC50 (EGFR wildtype; [6]) [nM] | IC50 (EGFR wildtype; IC50 WT, 100 μM ATP) [nM] | IC50 (EGFR L858R/C797S; [7]) [nM] | IC50 (EGFR L858R/C797S; IC50 L858R/C797S, 100 μM ATP) [nM] | Structure (SMILES)
7 | – | 2.4 | 0.3 | 0.5 | 0.1 | 0.4 | 6.9 | 9480 | 0.5 | 30.1 | C[C@]1(O)CC[C@@H](Nc2cc(Nc3ccnc(-c4cnn(S(=O)(=O)C5CC5)c4)n3)ncc2-c2cc(OCCN3CCOCC3)ccn2)CC1 [Example 211, (1s,4s)-4-((6′-((2-(1-(Cyclopropylsulfonyl)-1H-pyrazol-4-yl)pyrimidin-4-yl)amino)-4-(2-morpholinoethoxy)-[2,3′-bipyridin]-4′-yl)amino)-1-methylcyclohexan-1-ol]
8 | 1.2 | 2.7 | 0.5 | 1 | 0.4 | 0.6 | 3.4 | 7860 | 0.5 | 18.7 | O=S(=O)(C1CC1)n1cc(-c2nccc(Nc3cc(N[C@H]4CC[C@@H](CO)CC4)c(-c4cc(OCCN5CCOCC5)ccn4)cn3)n2)cn1 [Example 212, ((1s,4s)-4-((6′-((2-(1-(Cyclopropylsulfonyl)-1H-pyrazol-4-yl)pyrimidin-4-yl)amino)-4-(2-morpholinoethoxy)-[2,3′-bipyridin]-4′-yl)amino)cyclohexyl)methanol]
9 | 3.8 | 7.7 | 1.2 | – | 0.8 | 1.3 | 0.6 | > 10000 | 1.4 | 85.4 | CC(C)(O)[C@H]1CC[C@@H](Nc2cc(Nc3ccnc(-c4cnn(S(=O)(=O)C5CC5)c4)n3)ncc2-c2cc(OCCN3CCOCC3)ccn2)CC1 [Example 213, 2-((1s,4s)-4-((6′-((2-(1-(Cyclopropylsulfonyl)-1H-pyrazol-4-yl)pyrimidin-4-yl)amino)-4-(2-morpholinoethoxy)-[2,3′-bipyridin]-4′-yl)amino)cyclohexyl)propan-2-ol]
10 | 1.8 | 8 | 3 | 5.6 | 3.5 | 4.5 | 4.5 | 711 | 2.2 | 6.9 | O=S(=O)(C1CC1)n1cc(-c2nccc(Nc3cc(N[C@H]4CC[C@@H](CO)CC4)c(-c4cc(NC5CC(F)(F)C5)ccn4)cn3)n2)cn1 [Example 214, ((1s,4s)-4-((6′-((2-(1-(Cyclopropylsulfonyl)-1H-pyrazol-4-yl)pyrimidin-4-yl)amino)-4-((3,3-difluorocyclobutyl)amino)-[2,3′-bipyridin]-4′-yl)amino)cyclohexyl)methanol]
11 | 0.8 | 1.3 | 1.2 | 1.2 | 0.8 | 0.7 | 0.8 | 136 | 0.3 | 1.4 | CN(C)C[C@H]1CC[C@@H](Nc2cc(Nc3ccnc(-c4cnn(S(=O)(=O)C5CC5)c4)n3)ncc2-c2cc(NC3CC(F)(F)C3)ccn2)CC1 [Example 216, N^6′-(2-(1-(Cyclopropylsulfonyl)-1H-pyrazol-4-yl)pyrimidin-4-yl)-N^4-(3,3-difluorocyclobutyl)-N^4′-((1s,4s)-4-((dimethylamino)methyl)cyclohexyl)-[2,3′-bipyridine]-4,4′,6′-triamine]
12 | 0.2 | 0.3 | 0.8 | 0.7 | 0.3 | 0.3 | 0.8 | 118 | 0.2 | 0.4 | CC(C)(O)[C@H]1CC[C@@H](Nc2cc(Nc3ccnc(-c4cnn(S(=O)(=O)C5CC5)c4)n3)ncc2-c2ccc(OCCN3CCC3)cn2)CC1 [Example 217, 2-((1s,4s)-4-((5-(2-(Azetidin-1-yl)ethoxy)-6′-((2-(1-(cyclopropylsulfonyl)-1H-pyrazol-4-yl)pyrimidin-4-yl)amino)-[2,3′-bipyridin]-4′-yl)amino)cyclohexyl)propan-2-ol]
13 | 4.9 | 8.7 | 3.2 | 1.8 | – | 2.9 | 12.1 | 2670 | 2.9 | 27.4 | O=S(=O)(C1CC1)n1cc(-c2nccc(Nc3cc(N[C@H]4CC[C@@H](CO)CC4)c(-c4ccc(CC(F)(F)F)cn4)cn3)n2)cn1 [Example 219, ((1s,4s)-4-((6′-((2-(1-(Cyclopropylsulfonyl)-1H-pyrazol-4-yl)pyrimidin-4-yl)amino)-5-(2,2,2-trifluoroethyl)-[2,3′-bipyridin]-4′-yl)amino)cyclohexyl)methanol]
14 | 10.2 | 14.6 | 6.4 | 3.5 | 2.4 | 5 | 11.5 | > 10000 | 4.4 | 116 | O=S(=O)(C1CC1)n1cc(-c2nccc(Nc3cc(N[C@H]4CC[C@@H](CCO)CC4)c(-c4ccc(CC(F)(F)F)cn4)cn3)n2)cn1 [Example 223, 2-((1s,4s)-4-((6′-((2-(1-(Cyclopropylsulfonyl)-1H-pyrazol-4-yl)pyrimidin-4-yl)amino)-5-(2,2,2-trifluoroethyl)-[2,3′-bipyridin]-4′-yl)amino)cyclohexyl)ethan-1-ol]
